Source: article PMC5643462, “Encrypted Antimicrobial Peptides from Plant Proteins” (Scientific Reports, 2017)
Read-outs that look alike come from different tables or passages of the source. No end group written: not given here.

Columns and labels:
human red blood cells = experiment: Cytotoxicity: hemolysis of human red blood cells; format: cell-based
Protocol: The cytotoxicity of the selected IAPS was performed using human red blood cells in strict accordance with relevant guidelines and regulations (Ethical committee – UnB # 1.939.989). Different concentrations of IAPs (128 µM–0.5 µM) were incubated with a final concentration of 2.5 × 10^5 red blood cells.mL^−1. Briefly, 100 µL of red blood cells was incubated with 100 µL of different concentrations of each IAP, prepared in PBS, for 30 minutes at 37 °C, with constant shaking at 120 rpm. PBS and Triton X-100 0.1% (v/v) were used as negative and positive controls, respectively. After incubation, the solution was centrifuged at 900 × g for five minutes followed by transferring 50 µL of the supernatant to flat-bottom polystyrene 96-well micro plates containing 50 µL of PBS. Microplate reading was performed at a BioTek Multireader, using a wavelength of 540 nm. All tests were performed in 3 biological replicates, composed of 3 biological repetitions each. The obtained data was subtracted by the negative control and relative to the positive control, defined as 100% lysis.

[1] = tested on: Moniliophthora perniciosa basidiospores; experiment: Inhibition of M. perniciosa basidiospore germination; format: cell-based; settings: 1 × 10^6 basidiospores mL^−1, one hour with peptide (256-0.5 µM), 24 °C, counted after 4 hours on agar slides, biological triplicates; for IC50: concentration at which at least 50% of basidiospores germination was inhibited, read-out: Inhibitory concentration IC50, M. perniciosa basidiospores germination; for Inhibitory concentration IC95, M. perniciosa basidiospores germination: concentration at which at least 95% of basidiospores germination was inhibited
Protocol: The antimicrobial potential of T. cacao IAPs for inhibiting M. perniciosa basidiospores was evaluated. Briefly, 1 × 10^6 basidiospores mL^−1 were incubated for one hour with different concentrations of T. cacao IAPs (256-0.5 µM), at 24 °C, in a final volume of 100 µL. Autoclaved dH20 was used as a control. After incubation, 3 droplets of 10 µL each were placed in a slide coated with agar (1.2% (w/v)). Slides were incubated for 4, 24 and 48 hours at 24 °C. Slides were visualized using a DMRXA light microscope (Leica). Approximately 150–200 basidiospores per droplet from each time point were counted and compared to the control condition, which was defined as 100% germination. All experiments were performed in biological triplicates, with 3 technical repetitions each.

Row | Substance | Hemolytic activity (% ± SD) at 1 µM (human red blood cells) | Hemolytic activity (% ± SD) at 2 µM (human red blood cells) | Hemolytic activity (% ± SD) at 4 µM (human red blood cells) | Hemolytic activity (% ± SD) at 8 µM (human red blood cells) | Hemolytic activity (% ± SD) at 16 µM (human red blood cells) | Hemolytic activity (% ± SD) at 32 µM (human red blood cells) | Hemolytic activity (% ± SD) at 64 µM (human red blood cells) | Hemolytic activity of human red blood cells (%) SC50 (human red blood cells; SC50 = IAP concentration that at least 50% of red blood cells remain intact, 128 µM–0.5 µM tested, PBS, 30 minutes, 37 °C, absorbance 540 nm) | IC50 [1] | Inhibitory concentration IC95, M. perniciosa basidiospores germination [1] | Hemolytic activity (% ± SD) at 128 µM (human red blood cells) | Hemolytic activity of human red blood cells (%) SC50 (human red blood cells) | Concentration that induced 50% hemolysis (human red blood cells; red cells of human)
1 | IVNHLVKLFDKGLNSIVNLR-NH2 [Tc05] | 0.11 ± 0.02% | 0.07 ± 0.01% | 0.15 ± 0.05% | 0.07 ± 0.04% | 0.50 ± 0.10% | 0.21 ± 0.09% | 0.78 ± 0.47% | >128 µM | 128 µM | 256 µM | – | – | –
2 | GLLFKELQKLIRYQIFIGK-NH2 [Tc10] | 0.00 ± 0.0% | 0.00 ± 0.0% | 0.18 ± 0.04% | 0.06 ± 0.02% | 0.00 ± 0.00% | 0.23 ± 0.10% | 0.68 ± 0.17% | – | 32 µM | 64 µM | 4.56 ± 0.58% | >128 µM | –
3 | GKILKYLLYLLRKYANLIIR-NH2 [Tc02] | 0.00 ± 0.00% | 0.00 ± 0.00% | 0.40 ± 0.26% | 2.89 ± 1.12% | 6.30 ± 1.59% | 17.39 ± 1.15% | 29.15 ± 2.57% | – | 8 µM | 16 µM | 50.15 ± 5.15% | 64 µM | 64 µM
4 | GFKDLLKGAAKALVKTVLF-NH2 [Asc-8, Ascaphin-8, reference compound] | 0.00 ± 0.00% | 0.32 ± 0.1% | 0.26 ± 0.2% | 14.72 ± 0 .79% | 28.10 ± 4.76% | 54.35 ± 4.5% | 91.90 ± 6.36% | – | 8 µM | 16 µM | 101.56 ± 9.52% | 16 µM | –
5 | GSLHGFMYKYLKNMVLNLF-NH2 [Tc06] | 0.00 ± 0.00% | 0.00 ± 0.00% | 0.00 ± 0.00% | 0.00 ± 0.00% | 0.01 ± 0.00% | 0.77 ± 0.23% | 1.18 ± 0.23% | – | 32 µM | 64 µM | 7.67 ± 1.69% | >128 µM | –
